Laboratory results published in article PMC3199744, “Preformulation and stability in biological fluids of the retrocyclin RC-101, a potential anti-HIV topical microbicide” (AIDS Research and Therapy, 2011).

Columns and labels:
[1] = Circular dichroism of RC-101 at different pH; type: physicochemical; details: 500 μg/mL in buffer, pH 7 and pH 12 versus pH 3, 0.1 cm cell
Method: Changes in the secondary structure of the protein were monitored by Circular dichroism (CD) on an AVIV Circular Dichroism spectrophotometer model 202 (AVIV Biomedical, Lakewood, NJ) equipped with a 0.1 cm path length quartz cell. RC-101 stability was also monitored by using a matrix-assisted laser desorption ionization-time of flight (MALDI-TOF) mass spectrometric (MS) on a Voyager DE-PRO mass spectrometer (Applied Biosystems, Foster City, CA). Potential for aggregation was evaluated by UV-spectroscopy using a NanoDrop ND-1000 spectrophotometer (NanoDrop Technologies Inc, Wilmington, DE).

[2] = Stability in fresh normal human vaginal fluid (HVF), detection by LC-MS/MS; details: for time RC-101 detected in HVF: LC-MS/MS; for detection of RC-101 by LC-MS/MS: nanoLC-SRM MS, qualitative
Method: Inclusion criteria included ages between 18 and 45 years and agreeing to be abstinent from sexual activity for 48 hours prior to fluid collection. […] After signing informed consent and confirming eligibility, subjects completed a questionnaire and were then instructed on the use of the Instead Softcup® (Instead Inc., La Jolla, CA). Instead Softcup® is a FDA approved device to hold menstrual fluid during the menstrual period in replacement of a tampon or pad. Subjects inserted the cup and waited for 30 min. After this time period, the physician removed the cup, and placed it into a 50 mL conical centrifuge tube. Vaginal fluid collected from healthy volunteer women was stored at 4°C until used, and it was used within 4 h after collection.
The polymeric film solution was prepared as previously described by adding Milli Q water, PVA, and hydroxypropyl methyl cellulose (HPMC). The solution was then heated at 95°C for 20 minutes for complete dissolution of the polymers. […] The plate was placed into a vacuum oven at 30 ± 2°C for 20 ± 4 h. All dried films were removed from the plates and stored at room temperature in PET/Aluminum foil pouches (Amcor Flexibles Healthcare Inc, Mundelein, IL) until further analysis. […] For analytical purposes, films were dissolved in 1 mL of Milli Q water before addition to HVF.
The HVF from the Instead Softcup® was removed by centrifugation of the conical tube for 10 min at 5,000 rpm. […] HVF was then removed from the cup and the pH of each HVF sample was measured with Fisher Alkacid pH filter strips (Fisher Scientific). All samples collected on a specific day were pooled to be used for the research studies. If the pH of the individual samples was higher than 5, the sample was not included in the pool but it was stored at -80°C for separate analysis. If the sample contained blood, it was immediately discarded. Samples were prepared as described in Table 1. […] Because of its high viscosity, HVF was measured by weight and not by volume. […] At each time point, the samples were centrifuged at 10,000 rpm for 10 min to separate the supernatant from the epithelial cells as described in the cell processing section. Both parts (supernatant and cells) were stored at -80 ± C until analyzed by LC-MS/MS. To evaluate the influence of freezing the fluid prior to the analysis, the last pool of HVF was divided into two samples: one used fresh (at the time of collection), and the other one stored at -80°C for a 3-month period. […] HVF samples collected with a high pH value indicative of BV were stored at -80°C as previously mentioned. After confirmation of BV on those fluid samples by Gram stain score, the fluid samples (HVF BV^+) were thawed, pooled, and processed as described in Table 1.
At each time point, the sample was removed from the incubation chamber and centrifuged for 10 min at 10,000 rpm, at 4 ± C to separate the supernatant from cell pellet. Supernatant (100 μL) was added to microcentrifuge filters Ultracel YM-10 Microcon MWCO 10,000 (Millipore Corporation, Bedford, MA), which were pre-washed with Milli Q water to eliminate any trace of propylene glycol from the filters. Samples were centrifuged twice for 15 min at 8,500 rpm, at 4 ± C. The filtrate was collected and frozen at -80 ± C until further analysis. A solution of 3 M urea was added to the cell pellet (1:1 w/w) obtained from the first centrifugation, to lyse the cells. This mixture was vortexed three times for 30 sec, and then centrifuged for 10 min at 10,000 rpm, at 4 ± C. The supernatant obtained from the cell lysate was then added to microcentrifuge filters Ultracel YM-10 Microcon MWCO 10,000 pre-washed with Milli Q water. Samples were centrifuged twice for 15 min at 8,500 rpm, at 4 ± C. The filtrate was collected and frozen at -80 ± C until analysis.

Sequence: GICRCICGKGICRCICGR (bicyclic or more) [RC-101]
- CD spectrum: peak shift and loss of absorbance compared to pH 3 [1]: change in folding
- time RC-101 detected in HVF ([2]; another (one) pool of normal HVF, 37°C): up to 72 h
- detection of RC-101 by LC-MS/MS ([2]; fresh pooled normal HVF 100 mg + 100 μL (100 μg/mL), 1:1, 37°C, 0 h): +
- detection of RC-101 by LC-MS/MS ([2]; fresh pooled normal HVF 1:1, 37°C, 2 h): +
- detection of RC-101 by LC-MS/MS ([2]; fresh pooled normal HVF 1:1, 37°C, 6 h): +
- detection of RC-101 by LC-MS/MS ([2]; fresh pooled normal HVF 1:1, 37°C, 12 h): +
- detection of RC-101 by LC-MS/MS ([2]; fresh pooled normal HVF 1:1, 37°C, 24 h): +
- detection of RC-101 by LC-MS/MS ([2]; fresh pooled normal HVF 1:1, 37°C, 48 h): +
- detection of RC-101 by LC-MS/MS ([2]; fresh pooled normal HVF 1:1, 37°C, 72 h, only one pool analyzed): +
- time RC-101 detected after exposure to HVF ([2]; normal HVF, fresh, undiluted, pooled, 1:1 with RC-101 100 μg/mL, 37°C, LC-MS/MS (SRM), not quantitative, overall of 3 pools): at least 48 h
- time RC-101 detected in HVF ([2]; two pools of normal HVF, 37°C): 48 h
